The results in this text go back to ChEMBL document CHEMBL3507680, “University of Dundee, Gates Library screen for HepG2 cell viability”.

The series can be described thus: Human HepG2 cell viability assay in 384 well format. The series is classed as toxicity, cell-based. The arrangement: dose 125 nL, time 70.5 hour; cytotoxicity at 70.5 h: concentration not given beside the values. As to conditions: HepG2 cells, read-out: Inhibition.
Consider `CCc1ccc(C2COCCN2C(=O)Nc2cccc(C(C)=O)c2)o1` (stereo not given), for which the cytotoxicity at 70.5 h was -1.25%. Under `Cc1n[nH]c(C)c1CC(=O)NCCc1ccccc1` stands 14.3%; under `O=C(Cc1ccn[nH]1)N1CCc2cc(Br)sc2C1`, -6.46%; under `COc1cc(CNC(C)Cn2ccnc2)cc2c1OCCO2` (stereo not given), 21.5%. Under `Cn1cncc1-c1nnc([C@H]2CCN(Cc3cccnc3)C2)o1` stands -2.71%; under `CC(C)c1nc(N2CC[C@@H](N(C)CCc3ccccn3)[C@H](O)C2)no1`, 13.3%. Take `Cc1ccc(CN(CCN(C)C)Cc2ncc[nH]2)s1`: the cytotoxicity at 70.5 h is -5.13%. With `Cc1cc(C2CCCN2C(=O)CN2CC3(CCNCC3)OC2=O)on1` (stereo not given), the cytotoxicity at 70.5 h was -5.06%. Turning to `CNC(=O)c1nc2c(s1)CCN(C(=O)Cc1ccc(OC)cc1)CC2`, the cytotoxicity at 70.5 h was found to be 20.5%.

For the compound `O=C(NCc1cccc(C(F)(F)F)c1)C(c1cccnc1)N1CCCC1` (stereo not given), the cytotoxicity at 70.5 h is -4.98%. Regarding `O=C(NCCCn1cccn1)c1csc2c1CCCC2`, the cytotoxicity at 70.5 h was -11.3%.

In the case of `NC(=O)CC1CCN(C(=O)NCC2(c3ccccc3F)CC2)CC1`, the cytotoxicity at 70.5 h was determined as 0.188%. In the case of `O=C(NCc1cc[nH]n1)NCC(O)c1ccc(F)c(F)c1` (stereo not given) it was 1.18%; in that of `Cc1cccc(N2CCN(c3ccn4c(=O)[nH]nc4n3)CC2)c1C`, 3.43%. As to `Cc1nonc1NC(=O)CCn1cc(Br)ccc1=O`, the cytotoxicity at 70.5 h was 6.64%. As for `COc1ccccc1CN(CCCn1ccnc1)CC1CCOC1` (stereo not given), the cytotoxicity at 70.5 h is -4.43%. As for `COCCN1C=NC2(CCC(C(=O)Nc3ccc(C)cc3)CC2)C1=O` (stereo not given), the cytotoxicity at 70.5 h is -3.77%. In the case of `NCc1cc(-c2ccccc2)n2nccc2n1`, the cytotoxicity at 70.5 h was -10.1%.

In the case of `CO[C@@H]1CCC[C@@H](NC(=O)C(C)(C)c2cccc(F)c2)[C@H]1O`, the cytotoxicity at 70.5 h was -7.35%. Consider `CN(CCCO)C(=O)c1cc(COc2ccc3c(c2)CCCC3)on1`, for which the cytotoxicity at 70.5 h was -7.55%. Under `O=C(c1ccsc1)N1C[C@@H]2CCN(C(=O)c3cscn3)[C@@H]2C1` stands -6.91%.

As for `c1[nH]c(CC2CCCC2)nc1CN1CCCC2(CCOC2)C1` (stereo not given), the cytotoxicity at 70.5 h was -8.93%. Under `CSCCC(NC(=O)c1ccc2ccccc2n1)C(=O)O` (stereo not given) stands 4.89%; under `Cc1cnccc1-c1cc(NCCO)nc2[nH]ccc12`, 14.2%. For `CNc1cc2c(nn1)CCN(C(=O)c1ccc(-n3nccc3C)cc1)C2`, the cytotoxicity at 70.5 h is -5.27%. In the case of `COC1CCN(C(=O)c2c(Cl)c3ccccc3n2C)CC1` it was -9.88%.

`CC(=O)N1CCCCC1c1nnc2n1CCNC2` (stereo not given): the cytotoxicity at 70.5 h was found to be 17.5%. In the case of `Cc1cnn(CCNCc2ccc(C#N)cc2F)c1` it was -13.7%. Regarding `O=C(N1CCOCC1)N1CCN(c2ccc(Cl)nn2)C(=O)C1`, the cytotoxicity at 70.5 h was -6.24%.

`Cc1ccc(C2(CN(C)Cc3c(C)nn(C)c3C)CCNCC2)nc1`: the cytotoxicity at 70.5 h is 19.9%. As for `CC(C)CC(NCc1cscn1)c1ccccn1` (stereo not given), the cytotoxicity at 70.5 h is -7.87%. With `Cc1nc(N)cc(C2CCN2CCOc2ccccc2)n1` (stereo not given), the cytotoxicity at 70.5 h is -6.55%. For `Cc1cc(CN(Cc2cccs2)CC2CCCO2)no1` (stereo not given), the cytotoxicity at 70.5 h was -0.996%. As to `O=S(=O)(Cc1ccccc1)NCC1CCN(c2cnccn2)CC1`, the cytotoxicity at 70.5 h amounted to 4.32%. Consider `CCc1nc(Nc2cccc(C(=O)NC)c2)c2c(n1)c(C)nn2CC`, for which the cytotoxicity at 70.5 h was -11%. Under `CN(CC(=O)Nc1cccnc1)C1CCCN(c2cccnn2)C1` (stereo not given) stands 31.2%; under `Cc1cc(C(F)(F)F)nn1CCCNC(=O)C1CCCC1`, -1.45%; under `COCCc1noc(CN2CCCC2c2noc(C)n2)n1` (stereo not given), -0.394%. In the case of `COCCN1C[C@@H](C(=O)O)[C@H](c2ccccc2C)C1` it was 31.8%; in that of `OCC1(CC2CC2)CCCN(Cc2ccc(C(F)(F)F)nc2)C1` (stereo not given), -6.45%.

Regarding `COc1c(CNCc2ccc(Cn3cccn3)cc2)c(C)nn1C`, the cytotoxicity at 70.5 h is 3.44%. For the compound `CN1C(=O)C[C@@H]2[C@@H]1CCN2S(=O)(=O)Cc1ccccc1`, the cytotoxicity at 70.5 h is -3.44%. In the case of `Cc1nc(-c2noc3ccc(C(=O)NCCN4CCOCC4)cc23)cs1` it was -8.24%; in that of `Clc1cccc(CNc2cnn(CCN3CCCCC3)c2)c1`, -11.9%; in that of `Cc1ccccc1C(=O)N1CC[C@@H](N(C)C)[C@@H]1Cc1cnn(C)c1`, 25.4%. For the compound `Cc1cc(NC(=O)CN2CCc3cnc(C(C)C)nc3C2)on1`, the cytotoxicity at 70.5 h is -1.61%. In the case of `Cc1cc(C)c(CNC(=O)C(C)Oc2ccccc2F)c(=O)[nH]1` (stereo not given) it was 2.57%; in that of `COc1cccc(CC(=O)N2CCC(O)(C(F)(F)F)C2)c1` (stereo not given), -4.06%. On to `CO[C@@H]1CO[C@@]2(CCN(C(=O)COc3ccccc3C)C2)C1`, for which the cytotoxicity at 70.5 h is -2.61%. On to `Cc1cc(C(=O)N[C@H]2CN(CCO)C[C@@H]2C2CC2)sc1C`, for which the cytotoxicity at 70.5 h is -3.28%. In the case of `Cc1ccc(C(CNCc2cccn2C)N2CCOCC2)s1` (stereo not given), the cytotoxicity at 70.5 h is -4.6%. In the case of `O=c1[nH][nH]cc1-c1ccnc(NCCCN2CCOCC2)n1` it was -1.38%; in that of `c1cnc(NCc2cncc3c2CCN(Cc2ccoc2)C3)nc1`, -8.36%. In the case of `CCCN1CCC(c2nc3ccc(NCc4ccccc4)cn3n2)CC1` it was -1.96%; in that of `CCN(Cc1ccc2c(c1)OCCO2)C(=O)NCc1csc(C)n1`, -9.9%. In the case of `CC(C)CS(=O)(=O)NC(=O)c1ccc2c(c1)ncn2C` it was -4.45%; in that of `Cc1ncc(-c2ccnc(N3CCN(C)CC3)n2)c(-c2cccnc2)n1`, -13.1%; in that of `CO[C@@H]1CC[C@H]2[C@H]1OCCN2CCOCc1ccccc1`, -12.3%. For the compound `Cc1cccc(CN2C[C@@H]3CN(C(=O)[C@H]4CCCO4)C[C@@H]3C2=O)c1`, the cytotoxicity at 70.5 h is -5.16%.

Regarding `Cc1noc(CCCNC(=O)N2CCc3ccccc3C2CO)n1` (stereo not given), the cytotoxicity at 70.5 h turned out to be 14.9%. In the case of `CCn1cc(NC(=O)NCc2ccc(CN3CCOCC3)cc2)cn1` it was -6.5%; in that of `COC(=O)c1ccc(CN2CCN(Cc3nc(C)no3)CC2)s1`, -7.55%; in that of `Cc1n[nH]c(C)c1C1COCCN1C(=O)c1cc(F)ccc1F` (stereo not given), -8.76%. In the case of `CNc1cccc(C2CCCN(C(=O)c3cscn3)C2)n1` (stereo not given) it was -8.52%; in that of `COc1ccc(C(=O)NCCc2nnc3ccccn23)c(OC)c1`, 8%. As to `Cc1nc(CN2CCc3cncnc3C2)oc1C`, the cytotoxicity at 70.5 h is -5.69%. Regarding `CN(C)C1CCCN(C(=O)c2ccc3sc4c(c3c2)CCNC4=O)CC1` (stereo not given), the cytotoxicity at 70.5 h was 1.18%. For `Cc1nc2n(n1)CC(NCc1nc(-c3cccnc3)no1)CC2` (stereo not given), the cytotoxicity at 70.5 h was -7.76%. In the case of `Cc1ccc(S(=O)(=O)N2CCOCC2C(N)=O)c(F)c1` (stereo not given) it was -8.93%; in that of `O=C(NC1CC1)c1ccnc(N2CCOC(c3ccc(Cl)c(Cl)c3)C2)c1` (stereo not given), 9.19%. In the case of `CC(=O)c1cccc(-c2c[nH]c(C)n2)c1`, the cytotoxicity at 70.5 h is -7.11%. Under `OCCn1cc(CN2CCN(CCOc3cccc(F)c3)CC2)cn1` stands 1.71%; under `Cc1cncc(C2CCCN(C(=O)c3cnco3)C2)n1` (stereo not given), -3.92%; under `CCN1C[C@H]2CCN(Cc3ccncc3)C(=O)[C@@H]2C1`, -12%. In the case of `Cc1cnn(CCNCC(=O)N(C)C(C)c2ccccc2)c1` (stereo not given) it was -10.5%. Take `CCOc1ncnc2c1CCN(C(=O)c1ccncc1F)CC2`: the cytotoxicity at 70.5 h was -3.16%. With `CNS(=O)(=O)c1ccc(CN2CCN3CCNC(=O)C3C2)cc1` (stereo not given), the cytotoxicity at 70.5 h is -6.1%. As to `COCCN1CCN(S(=O)(=O)C2CC2)Cc2ccc(C)nc21`, the cytotoxicity at 70.5 h is -5.69%. Regarding `CS(=O)(=O)N[C@@H]1CCN(Cc2cccnc2)[C@H]1Cc1ccccc1`, the cytotoxicity at 70.5 h is -11.7%. On to `NS(=O)(=O)c1cccnc1Nc1cccc(Cl)c1Cl`, for which the cytotoxicity at 70.5 h amounted to 3.67%. In the case of `N#CCCN(Cc1ccccn1)C(=O)Nc1cccc(F)c1` it was -6.04%.

`CCC(C)NC(=O)c1cc(S(N)(=O)=O)c(Br)s1` (stereo not given): the cytotoxicity at 70.5 h is -6.88%. For the compound `CCNC(=O)c1ccc(N2CCCC(c3nccn3C(C)C)C2)nc1` (stereo not given), the cytotoxicity at 70.5 h is -10.3%. In the case of `CN(C)Cc1cnc(C2CCN(C(=O)c3ccccc3F)C2)[nH]1` (stereo not given) it was -3.2%. Take `CN(C)c1cnn(Cc2nc3ccccc3n2C)c(=O)c1`: the cytotoxicity at 70.5 h was -12.8%. Consider `CC(=O)N[C@H]1C[C@@H](c2nc(-c3ccc4c(c3)OCO4)no2)N(C)C1`, for which the cytotoxicity at 70.5 h was 2.89%. In the case of `c1cncc(-c2noc(CNC3CCCN(c4cccnn4)C3)n2)c1` (stereo not given) it was 24.9%; in that of `Cc1cccc(NC(=O)c2ccc(OCc3nnnn3C)cc2)n1`, 14.4%. In the case of `COc1cc(-c2nc(N)n[nH]2)cc(OC)c1OC` it was -8.57%; in that of `Cc1ccoc1C(=O)NC1CCN(Cc2ccccc2F)CC1`, 27.3%; in that of `CCS(=O)(=O)NCCN1CCN(C(C#N)c2ccccc2)CC1` (stereo not given), -9.85%. On to `Cc1occc1C(=O)N1CCCC(c2nncn2C)C1` (stereo not given), for which the cytotoxicity at 70.5 h is -6.07%. Take `COc1ccc(CN2CCn3c(CO)nnc3C2)cc1CN1CCCC1`: the cytotoxicity at 70.5 h is 2.95%. As to `Cc1ccc(C(=O)N(C)CCOc2ccccc2F)c(=O)[nH]1`, the cytotoxicity at 70.5 h was -5.2%. Under `COCCC(=O)N1CCCC1c1csc(Nc2ncccn2)n1` (stereo not given) stands -7.18%; under `Cc1cc(C)n(C2CCCN(C(=O)c3c[nH]c(=O)c(Cl)c3)C2)n1` (stereo not given), -8.77%.

As to `CCC[C@@H]1CN(Cc2cc(C#N)n(C)c2C)C[C@H]1NS(C)(=O)=O`, the cytotoxicity at 70.5 h is -6.42%. Under `Cc1cccc(COC[C@H]2CC[C@H]3[C@H](CCN3Cc3ccco3)O2)n1` stands -4.41%; under `CC(C)(C)CC(=O)N[C@@H]1CO[C@H](CNC(=O)c2ccncc2)[C@H]1O`, -2.51%; under `CC(O)CN1CCC(CN(C)Cc2cccc(C(=O)N(C)C)c2)CC1` (stereo not given), 12.1%.
